Source: patent US10370372B2, “Fused pyrimidine compound or salt thereof” (TAIHO PHARMACEUTICAL CO., LTD., priority 2015, dated 2019)
Read-outs that look alike come from different tables or passages of the source.

Legend:
Assay type in all cases: cell-based
[1] = tested on: Human prostate cancer cells LNCaP; assay: Inhibitory activity on androgen-dependent proliferation of prostate cancer cells; conditions: 1 nmol/L DHT, 72 hours, Cell Counting Kit-8, read-out: Proliferation inhibition concentration GI50 value
Procedure: Human prostate cancer cells LNCaP (Non-Patent Literature 5) having […] androgen receptor gene were seeded in a clear bottom 96 well microplate (BD) at 4.0×10^3/well with phenol red free RPMI1640 containing 5% DCC-FBS (hereinbelow, the medium is referred to as an evaluation medium), and then cultured overnight. […] Then, the number of viable cells was measured. The number of viable cells was measured by using Cell Counting Kit-8 (DOJINDO LABORATORIES).

[2] = tested on: AR positive human prostate cancer cells VCaP; assay: Agonist activity for AR: cell proliferation rate of VCaP cells; conditions: 5-10000 nmol/L, 72 hours, relative to evaluation medium only, more than 10% = agonist activity
Procedure: Then, the number of viable cells was measured (test group). As a control, the cells were cultured after being added with the evaluation medium only, and the number of viable cells was measured (control group). The number of viable cells was measured by using CellTiter-Glo™ Luminescent Cell Viability Assay (Promega). From the measured number of viable cells, cell proliferation rate with respect to the compound of Examples or the compound of Comparative Examples was calculated based on the number of viable cells measured in the case of using the evaluation medium only. Cell proliferation rate (%)=(Number of viable cells in test group−Number of viable cells in control group)/(Number of viable cells in control group)×100
By considering an error in the number of viable cells measured in the case of using the evaluation medium only, when the cell proliferation rate was more than 10% at any concentration of the 8 concentrations which had been evaluated, it was determined to have an agonist activity for AR.

AR expression in LNCaP = assay: Activity of reducing expression level of androgen receptor (Western blotting in LNCaP); conditions: Homo sapiens, read-out: AR expression reducing activity
Procedure: AR positive human prostate cancer cells LNCaP were seeded in a 6 well microplate (BD) at 3.5×10^5/well with RPMI1640 containing 5% FBS (hereinbelow, the medium is referred to as an evaluation medium), and then cultured overnight. […] After culture for 48 hours, the medium was removed and the cells were washed with PBS and added with 0.1 mL of Lysis buffer (M-PER added with Protease Inhibitor Cocktail), followed by keeping at 4° C. for 20 minutes. After cell lysis, the cell solution was centrifuged to recover the supernatant as cell lysate. […] The antibody-reacting band (anti AR receptor) was quantified by LAS Imaging System (FUJIFILM) using Super Signal West Dura Substrate (Thermo Scientific) as a detection reagent.
When the AR expression reducing activity is 50% or more, it is described as “reduced”.

human androgen receptor = target: T1, human androgen receptor (Homo sapiens, UniProt P10275); assay: Antagonist activity for AR: MMTV-luc reporter transcription in COS-7 cells transfected with human AR, stimulated with DHT
T1 construct: expressed in transfected cells; host or cells: COS-7 cells (ATCC)
T1 sequence (P10275 1-920): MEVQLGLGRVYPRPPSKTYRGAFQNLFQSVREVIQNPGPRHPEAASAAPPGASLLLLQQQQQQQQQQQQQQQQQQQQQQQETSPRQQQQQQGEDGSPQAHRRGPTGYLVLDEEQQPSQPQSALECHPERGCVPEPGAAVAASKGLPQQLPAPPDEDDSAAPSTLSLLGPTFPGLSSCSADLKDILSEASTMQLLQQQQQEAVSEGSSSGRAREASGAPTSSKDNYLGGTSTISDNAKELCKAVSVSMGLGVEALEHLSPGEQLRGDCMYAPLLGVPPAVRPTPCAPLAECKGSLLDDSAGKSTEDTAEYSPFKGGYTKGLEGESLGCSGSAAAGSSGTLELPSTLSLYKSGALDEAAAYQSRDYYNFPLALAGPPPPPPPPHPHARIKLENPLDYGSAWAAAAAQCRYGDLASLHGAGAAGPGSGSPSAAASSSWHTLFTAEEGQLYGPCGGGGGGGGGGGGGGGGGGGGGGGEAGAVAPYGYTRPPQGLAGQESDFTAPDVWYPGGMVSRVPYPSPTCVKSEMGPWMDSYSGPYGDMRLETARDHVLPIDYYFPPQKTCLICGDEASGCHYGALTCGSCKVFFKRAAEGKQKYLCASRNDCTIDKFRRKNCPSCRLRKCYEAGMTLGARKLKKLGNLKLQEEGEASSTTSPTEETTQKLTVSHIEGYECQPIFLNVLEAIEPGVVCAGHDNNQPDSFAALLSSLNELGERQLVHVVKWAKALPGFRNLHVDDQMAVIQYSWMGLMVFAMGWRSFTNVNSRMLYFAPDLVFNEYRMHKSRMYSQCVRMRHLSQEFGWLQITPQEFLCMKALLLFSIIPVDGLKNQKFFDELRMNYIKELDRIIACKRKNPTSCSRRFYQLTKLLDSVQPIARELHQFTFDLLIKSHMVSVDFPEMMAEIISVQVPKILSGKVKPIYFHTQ
Procedure: Antagonist activity for AR was evaluated according to the following method. COS-7 cells (ATCC) were transfected with pMMTV-luc vector (reporter plasmid having, as an androgen response element, […] long terminal repeat) and pEX-hAR vector (human androgen receptor expression vector: which expresses human AR gene under control of CMV promoter) by using Nucleofector (registered trademark) Kit R (Lonza) as a transfection reagent and Amaxa (Lonza). The COS-7 cells obtained after transfection were seeded in a clear bottom 96 well microplate (BD) at 1.5×10^4/well with phenol red free RPMI1640 containing 10% charcoal-treated fetal bovine serum (hereinbelow, DCC-FBS) (hereinbelow, the medium is referred to as an evaluation medium), and then cultured overnight. […] Then, the transcription activity value of the reporter plasmid was measured. The transcription activity was measured by using Bright-Glo™ Luciferase Assay System (Promega).

[3] = COS-7 cells with pMMTV-luc and pEX-hAR, 1 nmol/L DHT, 24 hours, read-out: AR antagonist IC50
[4] = 10000 nmol/L, 48 hours, vs evaluation medium control

Structure (SMILES)	GI50 [1] [nM]	Cell proliferation rate (%) [2] [%]	inhibition at 10 µM (AR expression in LNCaP; 48 h) [%]	IC50 (human androgen receptor) [nM]	IC50 (human androgen receptor; [3]) [nM]	inhibition at 10 µM (AR expression in LNCaP; [4]) [%]
CNC(=O)c1ccc(Nc2ncnc3c2CCN(c2ccc(C#N)c(C(F)(F)F)c2)C3)nc1F [Example 3, 6-((7-(4-cyano-3-(trifluoromethyl)phenyl)-5,6,7,8-tetrahydropyrido[3,4-d]pyrimidin-4-yl)amino)-2-fluoro-N-methylnicotinamide]	360	8.9	> 50	31		
CCNC(=O)c1ccc(Nc2ncnc3c2CCN(c2ccc(C#N)c(Cl)c2)C3)nc1F [Example 1, 6-((7-(3-Chloro-4-cyanophenyl)-5,6,7,8-tetrahydropyrido[3,4-d]pyrimidin-4-yl)amino)-N-ethyl-2-fluoronicotinamide]	83	9.7	> 50	2.6		
CC(C)(C)OC(=O)N1Cc2ccc(Nc3ncnc4c3CCN(c3ccc(C#N)c(Cl)c3)C4)cc2C1 [Example 29, tert-butyl 5-((7-(3-chloro-4-cyanophenyl)-5,6,7,8-tetrahydropyrido[3,4-d]pyrimidin-4-yl)amino)isoindoline-2-carboxylate]	830	2.4	> 50	220		
CC(C)(C)ONC(=O)c1ccc(Nc2ncnc3c2CCN(c2ccc(C#N)c(C(F)(F)F)c2)C3)nc1 [Example 7, N-(tert-butoxy)-6-((7-(4-cyano-3-(trifluoromethyl)phenyl)-5,6,7,8-tetrahydropyrido[3,4-d]pyrimidin-4-yl)amino)nicotinamide]	180	0.90	> 50		380	
CCNC(=O)c1ccc(Nc2ncnc3c2CCN(c2ccc(C#N)c(C(F)(F)F)c2)C3)nc1 [Example 5, 6-((7-(4-cyano-3-(trifluoromethyl)phenyl)-5,6,7,8-tetrahydropyrido[3,4-d]pyrimidin-4-yl)amino)-N-ethylnicotinamide]	120	−1.9	> 50	100		
O=C(NCC(F)(F)F)c1ccc(Nc2ncnc3c2CCN(c2ccc([N+](=O)[O-])c(C(F)(F)F)c2)C3)nn1 [Example 24, 6-((7-(4-Nitro-3-(trifluoromethyl)phenyl)-5,6,7,8-tetrahydropyrido[3,4-d]pyrimidin-4-yl)amino)-N-(2,2,2-trifluoroethyl)pyridazine-3-carboxamide]	790	7.8			180	> 50
CC(C)(O)c1ccc(Nc2ncnc3c2CCN(c2ccc([N+](=O)[O-])c(Cl)c2)C3)nc1 [Example 13, 2-(6-((7-(3-Chloro-4-nitrophenyl)-5,6,7,8-tetrahydropyrido[3,4-d]pyrimidin-4-yl)amino)pyridin-3-yl)propan-2-ol]	300	7.3			32	> 50
CC(C)(C)OC(=O)NCCNC(=O)c1ccc(Nc2ncnc3c2CCN(c2ccc(C#N)c(C(F)(F)F)c2)C3)nn1 [Example 8, tert-butyl (2-(6-((7-(4-cyano-3-(trifluoromethyl)phenyl)-5,6,7,8-tetrahydropyrido[3,4-d]pyrimidin-4-yl)amino)pyridazine-3-carboxamido)ethyl)carbamate]	1100	5.3	> 50	59		
COc1cc(N2CCc3c(ncnc3Nc3ccc(C(C)(C)O)cn3)C2)ccc1C#N [Example 23, 4-(4-((5-(2-Hydroxypropan-2-yl)pyridin-2-yl)amino)-5,6-dihydropyrido[3,4-d]pyrimidin-7(8H)-yl)-2-methoxybenzonitrile]	2600	2.3			19	> 50
CC(=O)N1CCN(CCCOc2ccc(Nc3ncnc4c3CCN(c3ccc(C#N)c(Cl)c3)C4)cc2Cl)CC1 [Example 42, 4-(4-((4-(3-(4-Acetylpiperazin-1-yl)propoxy)-3-chlorophenyl)amino)-5,6-dihydropyrido[3,4-d]pyrimidin-7(8H)-yl)-2-chlorobenzonitrile]	1300	5.1	> 50	560		
CC(C)(C)OC(=O)N1CCc2ccc(Nc3ncnc4c3CCN(c3ccc(C#N)c(Cl)c3)C4)cc2C1 [Example 36, tert-Butyl 7-((7-(3-chloro-4-cyanophenyl)-5,6,7,8-tetrahydropyrido[3,4-d]pyrimidin-4-yl)amino)-3,4-dihydroisoquinoline-2(1H)-carboxylate]	150	4.9	> 50		180	
N#Cc1ccc(N2CCc3c(ncnc3Nc3ccc(C(=O)NC4CC4)nn3)C2)cc1C(F)(F)F [Example 9, 6-((7-(4-cyano-3-(trifluoromethyl)phenyl)-5,6,7,8-tetrahydropyrido[3,4-d]pyrimidin-4-yl)amino)-N-cyclopropylpyridazine-3-carboxamide]	510	−3.0	> 50	30		
CC(C)(O)c1ccc(Nc2ncnc3c2CCN(c2ccc([N+](=O)[O-])c(Br)c2)C3)nc1 [Example 17, 2-(6-((7-(3-bromo-4-nitrophenyl)-5,6,7,8-tetrahydropyrido[3,4-d]pyrimidin-4-yl)amino)pyridin-3-yl)propan-2-ol]	1200	9.7	> 50	30		
CCNC(=O)c1ccc(Nc2ncnc3c2CCN(c2ccc(C#N)c(C(F)(F)F)c2)C3)nc1F [Example 4, 6-((7-(4-cyano-3-(trifluoromethyl)phenyl)-5,6,7,8-tetrahydropyrido[3,4-d]pyrimidin-4-yl)amino)-N-ethyl-2-fluoronicotinamide]	1100	9.7	> 50	45		
N#Cc1ccc(N2CCc3c(ncnc3Nc3ccc(OC(F)(F)F)cc3)C2)cc1C(F)(F)F [Example 27, 4-(4-((4-(trifluoromethoxy)phenyl)amino)-5,6-dihydropyrido[3,4-d]pyrimidin-7(8H)-yl)-2-(trifluoromethyl)benzonitrile]	1000	3.8	> 50	1000		
